# Assays:
# Type in all cases: in vivo
# [1] = test system: common cocklebur (Xanthium strumarium L.): XANST; test: Test Example 1 pre-emergence herbicidal activity, XANST; details: Rate 63 g a.i./ha, visually observed 20th to 23rd day after application
# From the text: Upland field soil was put into a 1/170,000 ha pot, and seeds of various plants {1. barnyardgrass (Echinochloa crus-galli L.): ECHCG, 2. crabgrass (Digitaria sanguinalis L.): DIGSA, 3. green foxtail (Setaria viridis L.): SETVI, 4. redroot pigweed (Amaranthus retroflexus L.): AMARE, 5. prickly sida (Sida spinosa L.): SEDSP, 6. velvetleaf (Abutilon theophrasti): ABUTH, 7. common cocklebur (Xanthium strumarium L.): XANST, 8. rice (Oryza sativa L.): ORYSA, 9. wheat (Triticum aestivum L.): TRZAX, 10. corn (Zea mays L.): ZEAMX, 11. soybean (Glycine max Merr.): GLXMA} were sown. Then, one day after the sowing, a wettable powder or emulsifiable concentrate having the compound of the present invention formulated in accordance with a usual formulation method, was weighed so that the active ingredient would be a predetermined amount and diluted with water in an amount of 500 L/ha. The herbicide adjusted was applied by a small size sprayer for preemergence treatment. On the 20th to 23rd day after the application of the herbicide, the growth of the respective plants was visually observed, and the herbicidal effects were evaluated by growth controlling degrees (%) ranging from 0 (equivalent to the untreated control) to 100 (complete kill), whereby the results shown in Table 4, were obtained. Compound Nos. in Table 4 correspond to Compound Nos. in Table 1 and 2 given hereinbefore.
# [2] = test system: soybean (Glycine max Merr.): GLXMA; test: Test Example 1 pre-emergence herbicidal activity, GLXMA; details: Rate 63 g a.i./ha, visually observed 20th to 23rd day after application
# Summary of the method: (§1)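 Seeds go into pots of upland field soil; one day on, the diluted formulation (500 L/ha water) is sprayed pre-emergence. Effects are scored visually 20 to 23 days post-application as 0–100% growth control.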
# [3] = test system: barnyardgrass (Echinochiloa oryzicola: ECHOR); test: Test Example 3 water application herbicidal activity (paddy), ECHOR; details: 63 g a.i./ha, water application under submerged condition at 0.5 leaf stage, visually observed 14th day after application; 0 = untreated control, 100 = complete kill
# Summary of the method: (§2)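 Compound, as diluted wettable powder or emulsifiable concentrate, was pipetted into flood water at a set active-ingredient dose. Weeds were treated at 0.5-leaf stage after sowing or tuber planting; 2-leaf rice 4 days post-transplant. Control scored visually, 0 untreated to 100 complete kill, weeds day 14, rice day 21.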
# [4] = test system: crabgrass (Digitaria sanguinalis L.): DIGSA; test: Test Example 1 pre-emergence herbicidal activity, DIGSA; details: Rate 63 g a.i./ha, visually observed 20th to 23rd day after application
# Summary of the method: as §1
# [5] = test system: japanese bulrush (Scirpus juncoides: SCPJO); test: Test Example 3 water application herbicidal activity (paddy), SCPJO; details: 63 g a.i./ha, water application under submerged condition at 0.5 leaf stage, visually observed 14th day after application; 0 = untreated control, 100 = complete kill
# Summary of the method: as §2
# [6] = test system: velvetleaf (Abutilon theophrasti): ABUTH; test: Test Example 1 pre-emergence herbicidal activity, ABUTH; details: Rate 63 g a.i./ha, visually observed 20th to 23rd day after application
# Summary of the method: as §1
# [7] = test system: green foxtail (Setaria viridis L.): SETVI; test: Test Example 1 pre-emergence herbicidal activity, SETVI; details: Rate 63 g a.i./ha, visually observed 20th to 23rd day after application
# Summary of the method: as §1
# [8] = test system: corn (Zea mays L.), ZEAMX; test: Test Example 2 post-emergence (foliage treatment) herbicidal activity, ZEAMX; details: 63 g a.i./ha
# Summary of the method: (§3)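 Each species was evaluated for growth suppression by eye, 0% matching untreated and 100% meaning death, some 20 to 23 days after a single post-emergence foliar treatment applied in 500 L/ha of water carrying 0.1% (v/v) agricultural spreader.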
# [9] = test system: redroot pigweed (Amaranthus retroflexus L.), AMARE; test: Test Example 2 post-emergence (foliage treatment) herbicidal activity, AMARE; details: 63 g a.i./ha
# Summary of the method: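 Sow in upland soil; grow to leaf stage (barnyardgrass 1.1-2.1, crabgrass 1.0-2.0, pigweed 0.1-1.5, rice 1.0-2); spray foliage at a fixed active ingredient rate in 500 L/ha water with 0.1% (v/v) spreader; rate growth control visually at 20-23 days on a 0-100% scale.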
# [10] = test system: japanese ribbon wapato (Sagittaria pygmaea: SA GPY); test: Test Example 3 water application herbicidal activity (paddy), SAGPY; details: 63 g a.i./ha, water application under submerged condition, tubers planted, visually observed 14th day after application; 0 = untreated control, 100 = complete kill
# Summary of the method: as §2
# [11] = test system: wheat (Triticum aestivum L.), TRZAX; test: Test Example 2 post-emergence (foliage treatment) herbicidal activity, TRZAX; details: 63 g a.i./ha
# Summary of the method: as §3
# [12] = test system: rice (Oryza sativa L.): ORYSA; test: Test Example 1 pre-emergence herbicidal activity, ORYSA; details: Rate 63 g a.i./ha, visually observed 20th to 23rd day after application
# Summary of the method: as §1
# [13] = test system: rice (Oryza sativa L.: ORYSA); test: Test Example 3 water application herbicidal activity (paddy), transplanted rice ORYSA; details: 63 g a.i./ha, water application 4th day after transplantation of 2 leaf stage rice, visually observed 21st day after application; 0 = untreated control, 100 = complete kill
# Summary of the method: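 Rice at 2-leaf stage is transplanted into flooded puddled soil and treated by water application 4 days later, at a predetermined active-ingredient dose. Crop injury is rated visually as growth control (0–100%) 21 days after treatment.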
compound,measurement,setting,value
COc1c(Cl)cc(F)c(-c2nn(C)c(OC(F)F)c2Cl)c1N(C=O)CC(=O)c1ccccc1 [Compound 1-12],Pre-emergence Herbicidal Activity XANST (growth controlling degree),[1],50%
same,Pre-emergence Herbicidal Activity GLXMA (growth controlling degree),[2],40%
same,growth controlling degrees (%) ECHOR,[3],95%
same,Pre-emergence Herbicidal Activity DIGSP (growth controlling degree),[4],30%
same,growth controlling degrees (%) SCPJO,[5],50%
same,Pre-emergence Herbicidal Activity ABUTH (growth controlling degree),[6],100%
same,Pre-emergence Herbicidal Activity SETVI (growth controlling degree),[7],95%
same,"growth controlling degree, ZEAMX",[8],10%
same,"growth controlling degree, AMARE",[9],100%
same,growth controlling degrees (%) SAGPY,[10],30%
same,"growth controlling degree, TRZAX",[11],20%
same,Pre-emergence Herbicidal Activity ORYSA (growth controlling degree),[12],40%
same,growth controlling degrees (%) ORYSA,[13],35%

# Source: patent US20050245399A1, “Pyrazole derivatives as herbicidal compositions containing them” (ISHIHARA SANGYO KAISHA, LTD., priority 2004, published 2005)
